Data published in EP0753512B1, “N,N,-diethyl-8,8-dipropyl-2-azaspiro[4.5]decane-2-propanamin] dimaleate salt” (AnorMED Inc, priority 1995, dated 1997).

Legend:
[1] = Hygroscopicity: rate of moisture absorption, Integrated Microbalance System; type: physicochemical; conditions: for % Weight Gain (Moisture Absorption): 25 °C; for hygroscopicity: statement in words, upon storage
Description: The rate of moisture absorption of Compound B and Compound C were tested individually in an Integrated Microbalance System, MODEL MB 300 G (VTI Corporation, Hialeah, Florida) using the accompanying Software Manual. Table 2(a) [table]

[2] = Relative solubilities in water, HCl and methanol; type: physicochemical
[3] = organic solvent or mixture, Solvent: methanol

CCCC1(CCC)CCC2(CCN(CCCN(CC)CC)C2)CC1.O=C(O)/C=C\C(=O)O.O=C(O)/C=C\C(=O)O [Compound C, N,N-diethyl-8,8-dipropyl-2-azaspiro[4.5]decane-2-propanamine dimaleate]
% Weight Gain (Moisture Absorption) ([1]; 0 % relative humidity): 0% | % Weight Gain (Moisture Absorption) ([1]; 10 % relative humidity): -0.21% | % Weight Gain (Moisture Absorption) ([1]; 15 % relative humidity): -0.18% | % Weight Gain (Moisture Absorption) ([1]; 20 % relative humidity): -0.08% | % Weight Gain (Moisture Absorption) ([1]; 25 % relative humidity): -0.12% | % Weight Gain (Moisture Absorption) ([1]; 30 % relative humidity): -0.08% | % Weight Gain (Moisture Absorption) ([1]; 35 % relative humidity): -0.08% | % Weight Gain (Moisture Absorption) ([1]; 40 % relative humidity): -0.08% | % Weight Gain (Moisture Absorption) ([1]; 45 % relative humidity): -0.05% | % Weight Gain (Moisture Absorption) ([1]; 50 % relative humidity): -0.04% | % Weight Gain (Moisture Absorption) ([1]; 55 % relative humidity): 0.04% | % Weight Gain (Moisture Absorption) ([1]; 60 % relative humidity): 0.1% | % Weight Gain (Moisture Absorption) ([1]; 65 % relative humidity): 0.18% | % Weight Gain (Moisture Absorption) ([1]; 70 % relative humidity): 0.41% | % Weight Gain (Moisture Absorption) ([1]; 75 % relative humidity): 0.56% | % Weight Gain (Moisture Absorption) ([1]; 80 % relative humidity): 0.89% | % Weight Gain (Moisture Absorption) ([1]; 85 % relative humidity): 1.70% | % Weight Gain (Moisture Absorption) ([1]; 90 % relative humidity): 5.37% | % Weight Gain (Moisture Absorption) ([1]; 95 % relative humidity): 42.88% | hygroscopicity [1]: far less hygroscopic | solubility ([2]; Solvent: 0.1% HCl): > 100 mg/mL | solubility ([2]; Solvent: Water): > 100 mg/mL | solubility [2, 3]: > 100 mg/mL

CCCC1(CCC)CCC2(CCN(CCCN(CC)CC)C2)CC1.Cl.Cl [Compound B, N,N-diethyl-8,8-dipropyl-2-azaspiro[4.5]decane-2-propanamine dihydrochloride, reference compound]
% Weight Gain (Moisture Absorption) ([1]; 0 % relative humidity): 0% | % Weight Gain (Moisture Absorption) ([1]; 10 % relative humidity): 0.20% | % Weight Gain (Moisture Absorption) ([1]; 15 % relative humidity): 1.81% | % Weight Gain (Moisture Absorption) ([1]; 20 % relative humidity): 2.17% | % Weight Gain (Moisture Absorption) ([1]; 25 % relative humidity): 2.84% | % Weight Gain (Moisture Absorption) ([1]; 30 % relative humidity): 3.74% | % Weight Gain (Moisture Absorption) ([1]; 35 % relative humidity): 3.15% | % Weight Gain (Moisture Absorption) ([1]; 40 % relative humidity): 3.30% | % Weight Gain (Moisture Absorption) ([1]; 45 % relative humidity): 4.74% | % Weight Gain (Moisture Absorption) ([1]; 50 % relative humidity): 5.49% | % Weight Gain (Moisture Absorption) ([1]; 55 % relative humidity): 9.07% | % Weight Gain (Moisture Absorption) ([1]; 60 % relative humidity): 9.26% | % Weight Gain (Moisture Absorption) ([1]; 65 % relative humidity): 9.50% | % Weight Gain (Moisture Absorption) ([1]; 70 % relative humidity): 15.47% | % Weight Gain (Moisture Absorption) ([1]; 75 % relative humidity): 31.30% | % Weight Gain (Moisture Absorption) ([1]; 80 % relative humidity): 36.53% | % Weight Gain (Moisture Absorption) ([1]; 85 % relative humidity): 44.16% | hygroscopicity [1]: hygroscopic | solubility ([2]; Solvent: 0.1% HCl): > 100 mg/mL | solubility ([2]; Solvent: Water): > 100 mg/mL | solubility [2, 3]: > 100 mg/mL
